# Values quoted from earlier work as cited in US20240141060A1, “DOSAGE REGIMES FOR ANTI-CD73 AND ANTI-ENTPD2 ANTIBODIES AND USES THEREOF” (NOVARTIS AG, priority 2021, published 2024).
# Conditions: patients; cited from earlier work
smiles,measurement,value
"Nc1nc(-n2cccn2)nc(-n2cccn2)c1Br [NIR178, 5-bromo-2,6-di-(1H-pyrazol-1-yl)pyrimidine-4-amine, reference compound]",MTD,480 mg BID
